The text below walks through data of patent US20200038415A1, “AMINOSTEROL COMPOSITIONS AND METHODS OF USING THE SAME FOR TREATING ERECTILE DYSFUNCTION” (Enterin, Inc., priority 2018, published 2020).

The conditions of data set [1]: in vivo; cited from earlier work.
The nature of data set [2]: Pharmacokinetics of orally administered squalamine (ENT-01) in Stage 1. The data set is classed as in vivo, human. The note with it: oral, active zwitterion. As to the method: PK data were collected on the 10 patients enrolled in Stage 1 and 10 patients enrolled in Stage 2 to determine the extent of systemic absorption. In Stage 1, PK data were obtained at each visit, pre-medication, at 1, 2, 4, 8 and 24 hours (Table 10). In Stage 2, PK was measured on days 1 and 6 of the randomization period pre-medication, at 1, 2, 4 and 8 hours (Table 11).
The mean Cmax, Tmax and T1/2 and AUC of the squalamine ion following squalamine (ENT-01) oral dosing for Stage 1 patients. The PK analyses are only approximate, as the lower limit of the validated concentration range was 10 ng/ml; most of the measured concentrations fell below that value. The mean Cmax, Tmax and T1/2 and AUC of the squalamine ion following squalamine (ENT-01) oral dosing for Stage 2 patients. The PK analyses are only approximate, as the lower limit of the validated concentration range was 0.5 ng/ml.

For data set [3] the following is noted: cited from earlier work.
The next data set concerns mouse models of PD. The settings on record: oral; mice with constipation due to overexpression of human αS (West et al, in preparation); cited from earlier work.
The conditions of data set [4]: prior studies, cited from earlier work.
For data set [5], the system named is IPANs (intrinsic primary afferent neuron). The note with it: perfusion through lumen of isolated bowel segment, PD mouse model; cited from earlier work.
The conditions of data set [6]: systemic administration; into the duodenum through the biliary tract (in mice); cited from earlier work.

Consider `CC(C)[C@@H](CC[C@@H](C)[C@H]1CC[C@H]2[C@@H]3[C@H](O)C[C@H]4C[C@@H](NCCCNCCCCNCCCN)CC[C@]4(C)[C@H]3CC[C@]12C)OS(=O)(=O)O` [Aminosterol 1436, trodusquemine], for which the known pharmacological effects entry in data set [1] was “reduction in food intake and weight loss”.
Turning to `CC(C)[C@@H](CC[C@@H](C)[C@H]1CC[C@H]2[C@@H]3[C@H](O)C[C@H]4C[C@@H](NCCCNCCCCN)CC[C@]4(C)[C@H]3CC[C@]12C)OS(=O)(=O)O` [squalamine], the systemic absorption entry in data set [2] is reported as “not significantly absorbed into the systemic circulation”. Further, the “well tolerated intravenous dose” value in data set [3] (dilactate salt, single and repeat intravenous administration, Phase 1 and Phase 2 trials) is on record as “at least 300 mg/m^2”. Besides, in data set [3] (published clinical trials, systemic administration), the “drug related GI toxicology” value was “has not been reported”. Besides, the gastro-intestinal motility entry in the data set with mouse models of PD is “stimulates gastro-intestinal motility”. The “gastrointestinal motility after intravenous administration” value in data set [4] (intravenous) was “not associated with increased gastrointestinal motility”. The “systemic blood levels, intravenous versus orally administered” value in data set [4] is listed as “one thousand-fold greater”. In data set [1], the known pharmacological effects entry is listed as “nausea, vomiting and/or reduced blood pressure”. For the same compound, in data set [5], the “effect on IPANs of the ENS” value was “excitation of IPANs”. In addition, the clearance and excretion result in data set [6] was “cleared by the liver and excreted as the intact molecule”.
